From patent publication US9387200B2, “Isothiazole-pyridine derivatives as modulators of HIF (hypoxia inducible factor) activity” (FibroGen, Inc., priority 2008, dated 2016)

The compounds below were run against T1, HIF-PH2 (Homo sapiens, UniProt Q9GZT9) (assay: HIF-PH assay (14CO2 capture, peptide-dependent turnover)). Settings: compound concentration 22.22 μM.
T1 construct: made in house; host or cells: insect Hi5 cells
Type: biochemical
Description: Ketoglutaric acid α-[1-^14C]-sodium salt, alpha-ketoglutaric acid sodium salt, and HPLC purified peptide may be obtained from commercial sources, e.g., Perkin-Elmer (Wellesley Mass.), Sigma-Aldrich, and SynPep Corp. (Dublin Calif.), respectively. Peptides for use in the assay may be fragments of HIFα as described above or as disclosed in International Publication WO 2005/118836, incorporated by reference herein. For example, a HIF peptide for use in the HIF-PH assay is [methoxycoumarin]-DLDLEALAPYIPADDDFQL-amide. HIF-PH, e.g., HIF-PH2 (EGLN1), can be expressed in, e.g., insect Hi5 cells, and partially purified, e.g., through a SP ion exchange chromatography column. Enzyme activity is determined by capturing ^14CO2 using an assay described by Kivirikko and Myllyla (1982, Methods Enzymol. 82:245-304). Assay reactions contain 50 mM HEPES (pH 7.4), 100 μM α-ketoglutaric acid sodium salt, 0.30 μCi/mL ketoglutaric acid α-[1-^14C]-sodium salt, 40 μM FeSO4, 1 mM ascorbate, 1541.8 units/mL Catalase, with or without 50 μM peptide substrate and various concentrations of compound of the invention. Reactions are initiated by addition of HIF-PH enzyme.
The peptide-dependent percent turnover is calculated by subtracting percent turnover in the absence of peptide from percent turnover in the presence of substrate peptide. Percent inhibition and IC50 are calculated using peptide-dependent percent turnover at given inhibitor concentrations. Calculation of IC50 values for each inhibitor is conducted using GraFit software (Erithacus Software Ltd., Surrey UK).
Representative compounds of the invention were analyzed using the HIF-PH assay described above. Table I below presents enzyme inhibition data for exemplary compounds against HIF-PH2, a representative HIF prolyl hydroxylase enzyme. By inhibiting HIF prolyl hydroxylase enzymes, compounds of the invention stabilize HIFα, which then combines with HIFβ to form an active transcription factor that increases expression of various genes involved in numerous beneficial cellular processes.

T1 sequence (Q9GZT9 whole entry, species assumed): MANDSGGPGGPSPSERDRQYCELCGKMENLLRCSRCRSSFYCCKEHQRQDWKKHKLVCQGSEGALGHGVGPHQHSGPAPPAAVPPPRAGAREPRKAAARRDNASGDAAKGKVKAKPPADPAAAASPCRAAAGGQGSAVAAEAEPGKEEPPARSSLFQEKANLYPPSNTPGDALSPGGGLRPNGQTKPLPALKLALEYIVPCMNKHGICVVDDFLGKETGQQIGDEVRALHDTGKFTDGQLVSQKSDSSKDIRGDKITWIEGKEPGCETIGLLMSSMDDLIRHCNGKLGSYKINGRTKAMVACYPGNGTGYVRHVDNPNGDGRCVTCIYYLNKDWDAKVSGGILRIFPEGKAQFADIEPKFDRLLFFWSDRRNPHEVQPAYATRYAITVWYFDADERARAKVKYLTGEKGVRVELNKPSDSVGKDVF

Row | Compound | inhibition at 22.22 µM
1 | Cc1nsc2c(-c3cnccn3)nc(C(=O)NCC(=O)O)c(O)c12 [Example 40, [(4-Hydroxy-3-methyl-7-pyrazin-2-yl-isothiazolo[5,4-c]pyridine-5-carbonyl)-amino]-acetic acid] | 70%
2 | Cc1nsc2c(O)c(C(=O)NCC(=O)O)nc(-c3cnccn3)c12 [Example 41, [(7-Hydroxy-3-methyl-4-pyrazin-2-yl-isothiazolo[4,5-c]pyridine-6-carbonyl)-amino]-acetic acid] | 98%
3 | O=C(O)CNC(=O)c1nc(-c2ccccc2)c2c(Cn3ccc4ccccc43)nsc2c1O [Example 42, [(7-Hydroxy-3-indol-1-ylmethyl-4-phenyl-isothiazolo[4,5-c]pyridine-6-carbonyl)-amino]-acetic acid] | 100%
4 | O=C(O)CNC(=O)c1ncc2snc(-c3ccccc3)c2c1O [Example 43, [(4-Hydroxy-3-phenyl-isothiazolo[5,4-c]pyridine-5-carbonyl)-amino]-acetic acid] | 97%
5 | Cc1nc(C(=O)NCC(=O)O)c(O)c2c(-c3ccccc3)nsc12 [Example 44, [(4-Hydroxy-7-methyl-3-phenyl-isothiazolo[5,4-c]pyridine-5-carbonyl)-amino]-acetic acid] | 91%
6 | O=C(O)CNC(=O)c1nc(-c2ccccc2)c2snc(-c3ccccc3)c2c1O [Example 45, [(4-Hydroxy-3,7-diphenyl-isothiazolo[5,4-c]pyridine-5-carbonyl)-amino]-acetic acid] | 97%

Same assay, conditions: compound concentration 200 μM

Row | Compound | inhibition at 200 µM
7 | O=C(O)CNC(=O)c1ncc2snc(-c3ccccc3F)c2c1O [Example 33, {[3-(2-Fluoro-phenyl)-4-hydroxy-isothiazolo[5,4-c]pyridine-5-carbonyl]-amino}-acetic acid] | 100%
8 | O=C(O)CNC(=O)c1nc(-c2ccccc2)c2snc(-c3ccccc3F)c2c1O [Example 34, {[3-(2-Fluoro-phenyl)-4-hydroxy-7-phenyl-isothiazolo[5,4-c]pyridine-5-carbonyl]-amino}-acetic acid] | 100%
9 | O=C(O)CNC(=O)c1nc(-c2ccc(Oc3ccccc3)cc2)c2snc(-c3ccccc3F)c2c1O [Example 35, {[3-(2-Fluoro-phenyl)-4-hydroxy-7-(4-phenoxy-phenyl)-isothiazolo[5,4-c]pyridine-5-carbonyl]-amino}-acetic acid] | 100%
10 | Cc1nc(C(=O)NCC(=O)O)c(O)c2c(-c3ccccc3F)nsc12 [Example 36, {[3-(2-Fluoro-phenyl)-4-hydroxy-7-methyl-isothiazolo[5,4-c]pyridine-5-carbonyl]-amino}-acetic acid] | 100%
11 | Cc1nsc2c(-c3cccnc3)nc(C(=O)NCC(=O)O)c(O)c12 [Example 37, [(4-Hydroxy-3-methyl-7-pyridin-3-yl-isothiazolo[5,4-c]pyridine-5-carbonyl)-amino]-acetic acid] | 100%
12 | Cc1nsc2c(-c3ccccn3)nc(C(=O)NCC(=O)O)c(O)c12 [Example 38, [(4-Hydroxy-3-methyl-7-pyridin-2-yl-isothiazolo[5,4-c]pyridine-5-carbonyl)-amino]-acetic acid] | 74%
13 | C#Cc1nc(C(=O)NCC(=O)O)c(O)c2c(C)nsc12 [Example 39, [(7-Ethynyl-4-hydroxy-3-methyl-isothiazolo[5,4-c]pyridine-5-carbonyl)-amino]-acetic acid] | 100%
14 | CCc1nc(C(=O)NCC(=O)O)c(O)c2c(C)nsc12 [Example 46, [(7-Ethyl-4-hydroxy-3-methyl-isothiazolo[5,4-c]pyridine-5-carbonyl)-amino]-acetic acid] | 99%
15 | CCc1nc(C(=O)NCC(=O)O)c(O)c2snc(C)c12 [Example 47, [(4-Ethyl-7-hydroxy-3-methyl-isothiazolo[4,5-c]pyridine-6-carbonyl)-amino]-acetic acid] | 99%
